The structures appear in SMILES notation.

The target in the assay is T1, recombinant human Myt1 (Homo sapiens, UniProt Q99640).
T1 construct: full length PKMYT1 recombinant human protein expressed in insect cells
T1 sequence (Q99640 1-499): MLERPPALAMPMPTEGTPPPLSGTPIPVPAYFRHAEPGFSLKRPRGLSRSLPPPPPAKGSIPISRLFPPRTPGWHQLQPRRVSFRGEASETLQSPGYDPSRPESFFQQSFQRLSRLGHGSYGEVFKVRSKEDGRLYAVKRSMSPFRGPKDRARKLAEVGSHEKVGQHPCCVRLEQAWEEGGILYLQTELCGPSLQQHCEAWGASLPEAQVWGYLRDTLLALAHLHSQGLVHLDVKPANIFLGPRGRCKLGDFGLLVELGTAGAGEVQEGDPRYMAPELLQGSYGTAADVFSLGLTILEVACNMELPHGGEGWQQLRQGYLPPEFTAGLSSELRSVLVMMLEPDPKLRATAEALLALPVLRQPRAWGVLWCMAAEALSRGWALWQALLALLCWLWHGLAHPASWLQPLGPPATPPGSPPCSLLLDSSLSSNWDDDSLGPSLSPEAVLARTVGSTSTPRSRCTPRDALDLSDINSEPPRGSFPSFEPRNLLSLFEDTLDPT
In words: Myt1 enzymatic assay (ADP-Glo kinase assay, IC50 and % max inhibition). Format: biochemical. Particulars: recombinant human Myt1 18 nM, ATP 10 μM. The protocol:
Detection of Myt1 kinase activity utilized a recombinant human Myt1 kinase assay measuring the hydrolysis of ATP using a commercially available ADP-Glo Assay (ADP-Glo™ Kinase Assay from Promega, 10 000 assays, #V9102). […] After this, 5 μL of compounds (diluted in reaction buffer to 0.5% DMSO) was added to the microplate and the plate was spun briefly and incubated at 22° C. for 15 minutes. Ultra-Pure Adenosine Triphosphate (ATP) solution (ADP-Glo kit from Promega) was diluted in reaction buffer and 5 μL was added to the microplate, spun down briefly and incubated for 60 minutes at 30° C. […] After the 60-minute incubation, 15 μL of ADP-Glo reagent was added and the plate was spun briefly and sealed and incubated in the dark for 40 minutes at 22° C. […] Luminescence was read using the Envision (250 ms integration). The IC50 and the % max inhibition were calculated for each inhibitor compound tested.
On the technique in general: ADP-Glo turns the ADP formed in a reaction into a luminescent signal.
The term IC50 denotes the midpoint of a concentration-inhibition curve. For the compound `CCCCc1cnc2c(n1)c(C(N)=O)c(N)n2-c1c(C)ccc(O)c1C` [Compound 96], the IC50 was 10 nM. The figure for `Cc1ccc(O)c(C)c1-n1c(N)c(C(N)=O)c2nc(C(F)F)cnc21` [Compound 263, 6-amino-2-(difluoromethyl)-5-(3-hydroxy-2,6-dimethyl-phenyl)pyrrolo[2,3-b]pyrazine-7-carboxamide] is 16 nM; for `Cc1ccc(O)cc1-n1c(N)c(C(N)=O)c2nc(C#CCN3CCOCC3)ccc21` [Compound 16, 2-amino-1-(5-hydroxy-2-methyl-phenyl)-5-(3-morpholinoprop-1-ynyl)pyrrolo[3,2-b]pyridine-3-carboxamide] it is 9630 nM; for `Cc1ccc(O)c(C)c1-n1c(N)c(C(N)=O)c2nccnc21` [Compound 147] it is 55 nM.

For `Cc1ccc(O)c(C)c1-n1c(N)c(C(N)=O)c2nc(-c3nc4ccccc4s3)cnc21` [Compound 248], the IC50 was less than 10 nM. Take `Cc1ccc(O)c(C)c1-n1c(N)c(C(N)=O)c2nc(C#CCN3CCOCC3)c(C#CCN3CCOCC3)nc21` [Compound 215]: the IC50 came to 24 nM. For the compound `CC(=O)N1CCN(c2cnc3c(n2)c(C(N)=O)c(N)n3-c2c(C)ccc(O)c2C)CC1` [Compound 87], the IC50 was less than 10 nM. `Cc1ccc(O)c(C)c1-n1c(N)c(S(C)(=O)=O)c2nc(-c3cnccn3)cnc21` [Compound 278]: the IC50 was more than 5000 nM. The figure for `Cc1ccc(O)c(C)c1-n1c(N)c(C(N)=O)c2cc(N3CCCC3=O)cnc21` [Compound 298] is less than 10 nM; for `Cc1ccc(O)cc1-n1c(N)c(C(N)=O)c2nc(-c3ccc(N4CCN(CCO)CC4)cc3)ccc21` [Compound 13] it is 190 nM; for `Cc1ccc(O)c(C)c1-n1c(N)c(C(N)=O)c2cccnc21` [Compound 328] it is less than 10 nM. Take `Cc1ccc(O)c(C)c1-n1c(N)c(C(N)=O)c2ncc(C#CCC3CCOCC3)nc21` [Compound 222]: the IC50 was less than 10 nM. Under `Cc1ccc(O)c(C)c1-n1c(N)c(C(N)=O)c2nc(-c3cncs3)cnc21` [Compound 37] stands less than 10 nM. The figure for `Cc1ccc(O)cc1-n1c(N)c(C(N)=O)c2nc(-c3cc[nH]n3)ccc21` [Compound 11] is 252 nM. Under `CNC(=O)C1CCN(c2cnc3c(n2)c(C(N)=O)c(N)n3-c2c(C)ccc(O)c2C)CC1` [Compound 46, 6-amino-5-(3-hydroxy-2,6-dimethyl-phenyl)-2-[4-(methylcarbamoyl)-1-piperidyl]pyrrolo[2,3-b]pyrazine-7-carboxamide] stands less than 10 nM; under `Cc1ccc(O)c(C)c1-n1c(N)c(C(N)=O)c2c(Cl)c(Cl)cnc21` [Compound 316], less than 10 nM; under `Cc1ccc(O)c(C)c1-n1c(N)c(C(N)=O)c2nc(-c3cccc(OC4CCOCC4)n3)cnc21` [Compound 258], 3130 nM. Turning to `Cc1ccc(O)cc1-n1c(N)c(C(N)=O)c2nc(-c3cccc(CC(=O)O)c3)ccc21` [Compound 20], the IC50 stood at 182 nM. For the compound `Cc1ccc(O)cc1-n1c(N)c(C(N)=O)c2nc(-c3ccc(CC(=O)O)cc3)ccc21` [Compound 21], the IC50 was 283 nM. As for `CC(=O)c1c(N)n(-c2c(C)ccc(O)c2C)c2ncc(-c3cnccn3)nc12` [Compound 97, 1-[6-amino-5-(3-hydroxy-2,6-dimethyl-phenyl)-2-pyrazin-2-yl-pyrrolo[2,3-b]pyrazin-7-yl]ethenone], the IC50 stood at 12 nM.

Consider `Cc1ccc(O)c(C)c1-n1c(N)c(C(N)=O)c2ncc(C#CCC3(O)CCOCC3)nc21` [Compound 237], for which the IC50 amounted to 19 nM. For `Cc1ccc(O)c(C)c1-n1c(N)c(C(N)=O)c2nc(-c3cn(C)cn3)cnc21` [Compound 76], the IC50 was less than 10 nM. Regarding `Cc1ccc(O)c(C)c1-n1c(N)c(C(N)=O)c2nc(-c3ccc(Cl)cn3)cnc21` [Compound 49], the IC50 was less than 10 nM. Under `Cc1ccc(O)c(C)c1-n1c(N)c(C(N)=O)c2c(C)c(C)cnc21` [Compound 125] stands 16 nM; under `COCCOCC#Cc1cnc2c(C(N)=O)c(N)n(-c3c(C)ccc(O)c3C)c2n1` [Compound 240], 191 nM.

Source of the values: patent US20230151014A1 (Repare Therapeutics Inc., priority 2020, published 2023).
